Test results as given in patent US10722496B2, “2-iminobiotin for use in the treatment of brain cell injury” (Neurophyxia B.V., priority 2015, dated 2020).

Experiments:
akt = experiment: Western blotting, akt phosphorylation; type: cell-based, human
Experimental: In vitro hypoxia was induced in the cell cultures by using our recently described system with minor modifications (Huang et al., 2013b; Weber et al., 2015; Zitta et al., 2010). Enzyme stock solutions (100×) of catalase and glucose oxidase (both from Sigma-Aldrich) were prepared in cell culture medium (DMEM/F12, 1% FCS; final concentration: 120 U/ml and 2 U/ml respectively; Sigma-Aldrich) leading to a decrease of partial pressure of oxygen (pO2) below 10 mmHg within 5 minutes. Hypoxic conditions were confirmed by using a tissue oxygen pressure monitor (LICOX® CMP Oxygen Catheter; Integra, Plainsboro, USA). After 7 hours of hypoxia, the cells were washed twice with PBS (PAA) and fresh normoxic medium supplemented with solvent (citrate buffer 1%) or 2-IB (10, 30, 50, 100 and 300 ng/mL) was added to the cells. […]
Protein extraction was performed using RIPA buffer containing 150 mM sodium chloride, 1% NP-40, 1% sodium deoxycholate, 0.1% sodium dodecyl sulfate (SDS) and 50 mM Tris-HCl buffer (pH 7.6; all from Sigma-Aldrich) or alternatively M-PER buffer (Mammalian Protein Extraction Reagent; Pierce, Ill., USA). Protein concentrations were determined with Roti®-Quant assays (Carl Roth) and samples were stored at −20° C. until use. […] Images were taken and densitometrically analyzed with the software ImageJ (v1.41o, NIH).

[1] = test system: piglet model of perinatal global hypoxia-ischemia (HI); details: Peeters-Scholte et al., 2002; cited from earlier work

For `N=C1N[C@H]2[C@H](CS[C@H]2CCCCC(=O)O)N1` [2-IB, 2-iminobiotin], the phospho akt/akt (akt; hypoxia plus 30 ng/ml 2-IB) is listed as 0.60±0.33, the phospho akt/akt (akt; normoxia plus 30 ng/ml 2-IB) is listed as 0.78±0.54 and the neurological damage [1] is listed as “reduces the amount of neurological damage”.
